Results: patent publication US20180155344A1, “TRICYCLIC PIPERIDINE COMPOUNDS” (ACTELION PHARMACEUTICALS LTD, priority 2015, published 2018)

What was measured:
cholangiocarcinoma = details: xenograft model of cholangiocarcinoma; cited from earlier work
5HT [1] = details: 200 mg/kg i.p. qid for 3 days, cited from earlier work
human TPH1 = target: T1, human TPH1 (Homo sapiens, UniProt P17752); assay: biochemical
T1 sequence (P17752 1-444): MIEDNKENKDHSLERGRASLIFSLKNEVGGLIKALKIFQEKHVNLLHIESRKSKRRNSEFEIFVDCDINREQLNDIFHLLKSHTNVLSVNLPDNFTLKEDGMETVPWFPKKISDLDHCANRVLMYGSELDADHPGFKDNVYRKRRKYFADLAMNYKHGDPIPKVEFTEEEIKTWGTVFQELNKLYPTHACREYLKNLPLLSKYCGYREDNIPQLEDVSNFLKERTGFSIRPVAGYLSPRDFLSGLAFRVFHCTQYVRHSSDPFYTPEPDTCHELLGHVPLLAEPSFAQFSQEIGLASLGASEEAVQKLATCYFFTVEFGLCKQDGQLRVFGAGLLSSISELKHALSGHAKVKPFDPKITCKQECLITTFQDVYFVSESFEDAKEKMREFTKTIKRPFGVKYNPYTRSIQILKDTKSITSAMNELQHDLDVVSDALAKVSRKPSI
Summary of the method: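 Inhibition is derived from 5-hydroxy-L-tryptophan fluorescence (540 nm emission, 300 nm excitation) after perchloric acid stop, relative to DMSO vehicle. Recombinant full-length human enzyme (40-80 nM) reacts with 40 μM tryptophan plus 100 μM methyltetrahydropterin, pH 7.6 Tris/DTT/catalase, 15° C, 60 min.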

5HT [2] = details: mice, cited from earlier work
5HT [3] = details: cited from earlier work
5HT [4] = details: phase IIA study, qid; cited from earlier work

N[C@@H](Cc1ccc(Cl)cc1)C(=O)O (racemic) [PCA, p-chlorophenylalanine]
tumor volume (cholangiocarcinoma): dramatic reduction in tumor volume | 5HT in the brain (5HT [1]; brain): ~20 % original | 5HT in the gut (5HT [1]; gut): ~50 % original

CCc1nc(NS(C)(=O)=O)ccc1OCC(=O)N1CCc2nc3cccnn3c2C1c1sc(C)nc1C (stereo not drawn) [Example 16.5.1, N-(5-(2-(9-(2,4-dimethylthiazol-5-yl)-6,9-dihydropyrido[4′,3′:4,5]imidazo[1,2-b]pyridazin-8(7H)-yl)-2-oxoethoxy)-6-ethylpyridin-2-yl)methanesulfonamide]
IC50 (human TPH1): 31 nM

O=C(COc1ccc(N2CCOCC2)nc1Cl)N1CCc2nc3cnccn3c2C1c1ccc(C2CC2)cc1F (stereo not drawn) [Example 17.1.1, 2-((2-chloro-6-morpholinopyridin-3-yl)oxy)-1-(1-(4-cyclopropyl-2-fluorophenyl)-3,4-dihydropyrido[4′,3′:4,5]imidazo[1,2-a]pyrazin-2(1H)-yl)ethan-1-one]
IC50 (human TPH1): 29 nM

CS(=O)(=O)Nc1ccc(OCC(=O)N2CCc3nc4cnccn4c3C2c2ccc(Cl)cc2F)c(Cl)n1 (stereo not drawn) [Example 17.2.1, N-(6-chloro-5-(2-(1-(4-chloro-2-fluorophenyl)-3,4-dihydropyrido[4′,3′:4,5]imidazo[1,2-a]pyrazin-2(1H)-yl)-2-oxoethoxy)pyridin-2-yl)methanesulfonamide]
IC50 (human TPH1): 214 nM

CCc1nc(NS(C)(=O)=O)ccc1OCC(=O)N1CCc2nc3cnccn3c2C1c1sc(C)nc1C (stereo not drawn) [Example 17.3.1, N-(5-(2-(1-(2,4-dimethylthiazol-5-yl)-3,4-dihydropyrido[4′,3′:4,5]imidazo[1,2-a]pyrazin-2(1H)-yl)-2-oxoethoxy)-6-ethylpyridin-2-yl)methanesulfonamide]
IC50 (human TPH1): 461 nM

O=C(COc1ccc(N2CCOCC2)nc1Cl)N1CCc2nc3ncccn3c2C1c1ccc(C2CC2)cc1F (stereo not drawn) [Example 18.1.1, 2-((2-chloro-6-morpholinopyridin-3-yl)oxy)-1-(6-(4-cyclopropyl-2-fluorophenyl)-8,9-dihydropyrido[4′,3′:4,5]imidazo[1,2-a]pyrimidin-7(6H)-yl)ethan-1-one]
IC50 (human TPH1): 56 nM

Nc1nc(OC(c2ccc(-c3cccc(F)c3)cc2)C(F)(F)F)cc(-c2ccc(C[C@H](N)C(=O)O)cc2)n1 (stereo partly drawn) [LP533401]
brain 5HT concentrations (5HT [2]; brain): without effecting brain concentrations | gut 5HT (5HT [2]; gut): lower gut 5HT

COc1cccc(-c2ccc([C@@H](Oc3cc(-c4ccc(C[C@H](N)C(=O)O)cc4)nc(N)n3)C(F)(F)F)cc2)c1 [LX1031, (S)-2-Amino-3-(4-{2-amino-6-[(R)-2,2,2-trifluoro-1-(3′-methoxy-biphenyl-4-yl)-ethoxy]-pyrimidin-4-yl}-phenyl)-propionic acid]
brain 5HT (5HT [3]; brain): no effect on brain 5HT | 5HT in the colon (5HT [3]; colon): only a minor reduction | 5HT in the jejunum (5HT [3]; jejunum): lowers 5HT in the jejunum | blood 5HT (5HT [4]): did not affect blood 5HT | urinary 5HIAA reduction (5HT [4]): up to 30%
